Key:
Format in all cases: binding, human
antibodies to HCV [1] = assay: Envelope/NS-1 peptide ELISA, anti-HCV positive plasmapheresis donors with elevated ALT (Panel III); conditions: envelope/NS-1 peptides; Panel III (17 samples); peptide 254B as a standard
Experimental: To select a panel of samples with reactivity to peptides from the envelope/NS-1 region, 97 such samples from anti-HCV positive plasmapheresis donors with elevated ALT levels were tested with peptide 254B. […] 17 samples with the greatest reactivity with peptide 254B were chosen to form a third panel (Panel III) to screen for the immunoreactivity of the other 20 peptides from the envelope/NS-1 region. The individual absorbance values of each of the 17 samples on the four peptides with the greatest reactivity, i.e. 255C (pep7), 254B (pep8), 247B (pep9), and 246D (pep10), are listed in Table 8b.

antibodies to HCV [2] = assay: Peptide ELISA for relative immunoreactivity, 8 member HCV serum panel (Panel I); conditions: for absorbance of the one reactive panel member: reactive with only one of eight
Experimental: As an example to illustrate how relative (%) immunoreactivity for HCV synthetic peptides is measured, wells of 96-well plates are coated for 1 hour at 37° C., with each of the following peptides: IIH, V, VIIIE and pep11 at 5 ug/mL at 100 uL per well in 10 mM NaHCO3 buffer, pH 9.5. The peptide coated wells were then incubated with 250 uL of 3% by weight of gelatin in PBS in 37° C. for 1 hour to block non-specificprotein binding sites, followed by three washes with PBS containing 0.05% by volume of TWEEN 20 and then dried. The test specimens containing a panel of eight well-characterized HCV antibody positive patient sera were diluted with PBS containing 20% by volume normal goat serum, 1% by weight gelatin and 0.05% by volume TWEEN 20 at dilutions of 1:20 volume to volume, respectively. 200 uL of the diluted specimens were added to each of the wells and allowed to react for 15 minutes at 37° C.
The wells were then washed six times with 0.05% by volume TWEEN 20 in PBS in order to remove unbound antibodies. Horseradish peroxidase conjugated goat anti-human IgG was used as a second antibody tracer to bind with the HCV antibody-peptide antigen complex formed in positive wells. 100 uL of peroxidase labeled goat anti-human IgG at a dilution of 1:1800 in 1% by volume normal goat serum, 0.05% by volume TWEEN 20 in PBS was added to each well and incubated at 37° C. for another 15 minutes.
The wells were washed six times with 0.05% by volume TWEEN 20 PBS to remove unbound antibody and reacted with 100 uL of the substrate mixture containing 0.04% by weight orthophenylenediamine (OPD) and 0.12% by volume hydrogen peroxide in sodium citrate buffer, pH 5.0.
This substrate mixture was used to detect the peroxidase label by forming a colored product. Reactions were stopped by the addition of 100 uL of 1.0M H2 SO4 and the A492 mm measured. Results of relative immunoreactivity for each of the peptides obtained from this study are shown in Table A using peptide II H as the reference.

antibodies to HCV [3] = assay: NS-1 peptide ELISA, Panel II (asymptomatic individuals, mainland China and Taiwan)
Experimental: Wells of 96-well plates were coated for 1 hour at 37° C. with each of the 16 peptides (designated as peptides 241A-C, 231A-E, 232A-D, 233C, 234A-C), synthesized according to sequences derived from the NS-1 region (Table 3A), at 5 ug/mL at 100 uL per well in 10 mM NaHCO3 buffer, pH 9.5. Each peptide's immunoreactivity was measured as previously described (see Example 1), using an 8 member serum panel (Panel I).
A panel of serum samples from individuals coming from regions in which hepatitis C is endemic, namely mainland China and Taiwan, were tested for evidence of reactivity to these NS-1 protein derived peptides. Twenty-four samples were chosen from individuals who had no recognizable symptoms of non-A, non-B hepatitis and for whom the peptide based HCV EIA, Format C, as described in Example 11, was nonreactive. Seven of the 24 samples (29%) were reactive against one or more peptides from the NS-1 region, indicative of the presence of long term protective antibodies responsive to this region. This 7 member panel (designated as Panel II, CH1-CH7) was used to further characterize these NS-1 peptides for their immunoreactivity.
The peptide with the greatest reactivity against the serum Panel II again was pep1 (designated 231c in Table 3A). Using this peptide as a standard, the relative immunoreactivity for each of the other 15 peptides from the NS-1 region are calculated in Table 3A.

antibodies to HCV [4] = assay: EIA of NS-3 peptides before and after pH adjustment
Experimental: Peptides dissolved at 1 mg/mL in H2 O, pH 4, were titrated to pH 11 by addition of diluted NaOH. After 5 min at pH 11, the pH of the peptide solution was brought down to 7.0 using diluted HCl. Immunoreactivity of the peptides thus treated was compared with reactivity prior to pH adjustment (Table 4E). Two-to three-fold increases in A492 nm were seen. Some previously non-reactive serum samples were able to react with pH adjusted peptides. For instance, serum sample 1, which is non-reactive to 261C, has an absorbance of 1401 mA when tested with the corresponding pH adjusted peptide.

[5] = NS-5 peptides (Table 12), Panel I, pep11 as a standard
[6] = NS-3 peptides (Table 4A), Panel I, relative to pep3 (279A)
[7] = capsid peptides, Panel I, relative to VIIIE, coated at 5, 1 and 0.2 μg/mL
[8] = Arima clone 1 peptides, relative to peptide VIIIE
[9] = serum sample 1, Ctrl (prior to pH adjustment)
[10] = serum sample 1, pH adj (pH 11 for 5 min, then 7.0)

CGSVFLIGQLFTFSPRRHWTTQGCNCSIYPGHITGHRMAWDMMMNWSPTA [254C]
% Relative Immunoreactivity (antibodies to HCV [1]): 16.7%

CNESLNTGWLAGLIYQHKFNSSGCPERLASC [246B]
% Relative Immunoreactivity (antibodies to HCV [1]): 19.8%

CQVPSPEFFTELDGVRLHRFAPPCKPLLREEVSFRVGLHEYPVGSQLPCEPEPD [311C]
% IP (antibodies to HCV [2]; [5]): 16.8%

CVREGNVSRCWVAMTPTVATRDGKLPATQLRRHIDLLVGSATLC [244B]
% Relative Immunoreactivity (antibodies to HCV [1]): 5.8%

CWVAMTPIVATRDGKLPATQLRRHIDLLVGSATLC [244A]
% Relative Immunoreactivity (antibodies to HCV [1]): 3.8%

FTDNSSPPVVPQSFQVAHLHAPTGSGKSTKPAAYA [278B]
% IP (antibodies to HCV [2]; [6]): 1.4%

GPRLGVRATRKTSERSQPRGRR [VIIIA]
% Relative Immunoreactivity (antibodies to HCV [2]; [7]): 32.7%

IPKVRRPEGRTWAQPGYPWPLYGNEGCGWAGWLLSPRGSRPSWGPTDPRRRSRNLG [IXD]
% Relative Immunoreactivity (antibodies to HCV [2]; [7]): 58.9%

KEKEKTATNNPGKNKKPRVGRIKNWNREGRKDAYQIRKRR [40 mer, reference compound]
% Relative Immunoreactivity (antibodies to HCV [2]; [8]): 21.1%

KKQRRYKEKEKTATNNPGKNKKPRVGRIKNWNREGRKDAYQIRKRR (NDTHKKQRRYKEKEKTATNNPGKNKKPRVGRIKNWNREGRKDAYQIRKRR) [50 mer, reference compound]
% Relative Immunoreactivity (antibodies to HCV [2]; [8]): 17.8%

KQNIQLINTNGSWHINSTALNCNESLNTGWLAGLIYQHKFNSSGCPERLASC [246E]
% Relative Immunoreactivity (antibodies to HCV [1]): 10.5%

LRRLHQWISSECTTPCSGSWLRDIWDWICEVLSDFKTWLKAKLMPQL [314C]
% IP (antibodies to HCV [2]; [5]): 14.2%

LWRVSAEEYVEIRQVGDFHYVIGMTTDNLKCPCQVPSP [312C]
% IP (antibodies to HCV [2]; [5]): 40.4%

PPLGNWFGCTWMNSTGFTKVCGAPPC [232A]
% IP (antibodies to HCV [3]; NS-1 peptides, Panel II (CH1-CH7), relative to pep1 (231C)): 88.7%
A492 nm by EIA (mA) (antibodies to HCV [3]; Panel II sample CH-1): 202 mA
A492 nm by EIA (mA) (antibodies to HCV [3]; Panel II sample CH-2): 261 mA
A492 nm by EIA (mA) (antibodies to HCV [3]; Panel II sample CH-3): 935 mA
A492 nm by EIA (mA) (antibodies to HCV [3]; Panel II sample CH-4): 1498 mA
A492 nm by EIA (mA) (antibodies to HCV [3]; Panel II sample CH-5): 621 mA
A492 nm by EIA (mA) (antibodies to HCV [3]; Panel II sample CH-6): 1128 mA
A492 nm by EIA (mA) (antibodies to HCV [3]; Panel II sample CH-7): 552 mA

PVVPQSFQVAHLHAPTGSGKSTKVPAAYA [278A]
% IP (antibodies to HCV [2]; [6]): 8.2%

PVVPQSFQVAHLHAPTGSGKSTKVPAAYAAQGYKVLVLNPS [272A]
% IP (antibodies to HCV [2]; [6]): 2.1%

RTITTGSPITYSTYGKFLADGGCSGGAYDIIICDECHSTDATSILGIGTVLDQAETAGARLVVLATATPPGSVTVPHPNIEEVALSTTGEIPFYGKAIPLEVIKGGRHLIFCHSKKKCDEL [261F]
absorbance of the one reactive panel member (antibodies to HCV [2]; Panel I): 269 mA

SECTTPCSGSWLRDIWDWICEVLSDFKTWLKAKLMPQL [314B]
% IP (antibodies to HCV [2]; [5]): 11.6%

TNDCPNSSIVYEAHDAILHTPGCVPCVREGNVSRC [255A]
% Relative Immunoreactivity (antibodies to HCV [1]): 9.8%

TQGCNCSIYPGHITGHRMAWDMMMWSPTA [254A]
% Relative Immunoreactivity (antibodies to HCV [1]): 21.4%

TWAQPGYPWPLYGNEGCGWAGWLLSPRGSRPSWGPTDPRRRSRNLG [IXC]
% Relative Immunoreactivity (antibodies to HCV [2]; [7]): 57.9%

VGGVYLLPRRGPRLGVRATRKTSERSQPRGRR [VIIIB]
% Relative Immunoreactivity (antibodies to HCV [2]; [7]): 48.9%

B1: KKGEASNGEAENDTHKKQRRYKEKEKTATNNPGKNKKPRVGRIKNWNREGRKDAYQIRKRR (peptide)
peptide: KKGEASNGEAENDTHKKQRRYKEKEKTATNNPGKNKKPRVGRIKNWNREGRKDAYQIRKRR
% Relative Immunoreactivity (antibodies to HCV [2]; [8]): 20.7%

B2: GRRQPIPKVRRPEGRTWAQPGYPWPLYGNEGCGWAGWLLSPRGSRPSWGPTDPRRRSRNLG (peptide)
peptide: GRRQPIPKVRRPEGRTWAQPGYPWPLYGNEGCGWAGWLLSPRGSRPSWGPTDPRRRSRNLG
% Relative Immunoreactivity (antibodies to HCV [2]; [7]): 50.2%

B3: AVDFIPVENLETTMRSPVFTDNSSPPVVPQSFQVAHLHAPTGSGKSTKVPAAYAAQGYKVLVLNPS (peptide)
chain: AVDFIPVENLETTMRSPVFTDNSSPPVVPQSFQVAHLHAPTGSGKSTKVPAAYAAQGYKVLVLNPS
A492 nm (mA) by EIA (antibodies to HCV [4]; [9]): 8 mA
A492 nm (mA) by EIA (antibodies to HCV [4]; [10]): 973 mA
A492 nm (mA) by EIA (antibodies to HCV [4]; serum sample 2, Ctrl): 74 mA
A492 nm (mA) by EIA (antibodies to HCV [4]; serum sample 2, pH adj): 255 mA
A492 nm (mA) by EIA (antibodies to HCV [4]; serum sample 3, Ctrl): 29 mA
A492 nm (mA) by EIA (antibodies to HCV [4]; serum sample 3, pH adj): 141 mA
A492 nm (mA) by EIA (antibodies to HCV [4]; serum sample 4, Ctrl): 17 mA
A492 nm (mA) by EIA (antibodies to HCV [4]; serum sample 4, pH adj): 158 mA
% IP (antibodies to HCV [2]; [6]): 11.8%

B4: GCSGGAYDIIICDECHSTDATSILGIGTVLDQAETAGARLVVLATATPPGSVTVPHPNIEEVAL (peptide)
chain: GCSGGAYDIIICDECHSTDATSILGIGTVLDQAETAGARLVVLATATPPGSVTVPHPNIEEVAL
A492 nm (mA) by EIA (antibodies to HCV [4]; [9]): 628 mA
A492 nm (mA) by EIA (antibodies to HCV [4]; [10]): 1604 mA
A492 nm (mA) by EIA (antibodies to HCV [4]; serum sample 2, Ctrl): 148 mA
A492 nm (mA) by EIA (antibodies to HCV [4]; serum sample 2, pH adj): 466 mA
A492 nm (mA) by EIA (antibodies to HCV [4]; serum sample 3, Ctrl): 9 mA
A492 nm (mA) by EIA (antibodies to HCV [4]; serum sample 3, pH adj): 625 mA
A492 nm (mA) by EIA (antibodies to HCV [4]; serum sample 4, Ctrl): 464 mA
A492 nm (mA) by EIA (antibodies to HCV [4]; serum sample 4, pH adj): 1144 mA

B5: AEEDEREISVPAEILRKSRRFAQALPVWARPDYNPPLVETWKKPDYEPPVVHGCPLPPPKSPPVPPPRKKRT (peptide)
chain: AEEDEREISVPAEILRKSRRFAQALPVWARPDYNPPLVETWKKPDYEPPVVHGCPLPPPKSPPVPPPRKKRT
% IP (antibodies to HCV [2]; [5]): 97.2%

B6: GGAYDIIICDECHSTDATSILGIGTVLDQAETAGARLVVLATATPPGSVTVPHPNIEEVALSTTGEIPFYGKAIPLEVIKGGRHLIFCHSKKKCDEL (peptide)
chain: GGAYDIIICDECHSTDATSILGIGTVLDQAETAGARLVVLATATPPGSVTVPHPNIEEVALSTTGEIPFYGKAIPLEVIKGGRHLIFCHSKKKCDEL
absorbance of the one reactive panel member (antibodies to HCV [2]; Panel I): 307 mA
